{"source": "paper PMC9629815", "about": "“MK256 is a novel CDK8 inhibitor with potent antitumor activity in AML through downregulation of the STAT pathway” (Oncotarget, 2022)", "key": {"CDK2/cyclin E1": {"biological_target": "CDK2/cyclin E1 (Homo sapiens, UniProt P24941)", "experiment": "CDK panel kinase inhibition", "format": "biochemical", "conditions": "read-out: Percentage of inhibition (%)", "description": "(§1) MK256 was synthesized in house. The kinase profiling of MK256 against various targets was done using the SelectScreen Kinase Profiling Services provided by ThermoFisher Scientific (Walham WA, USA). https://www.thermofisher.com/us/en/home/products-and-services/services/custom-services/screening-and-profiling-services/selectscreen-profiling-service/selectscreen-kinase-profiling-service.html."}, "CDK9/cyclin K": {"biological_target": "CDK9/cyclin K (Homo sapiens, UniProt P50750)", "sequence (P50750 whole entry)": "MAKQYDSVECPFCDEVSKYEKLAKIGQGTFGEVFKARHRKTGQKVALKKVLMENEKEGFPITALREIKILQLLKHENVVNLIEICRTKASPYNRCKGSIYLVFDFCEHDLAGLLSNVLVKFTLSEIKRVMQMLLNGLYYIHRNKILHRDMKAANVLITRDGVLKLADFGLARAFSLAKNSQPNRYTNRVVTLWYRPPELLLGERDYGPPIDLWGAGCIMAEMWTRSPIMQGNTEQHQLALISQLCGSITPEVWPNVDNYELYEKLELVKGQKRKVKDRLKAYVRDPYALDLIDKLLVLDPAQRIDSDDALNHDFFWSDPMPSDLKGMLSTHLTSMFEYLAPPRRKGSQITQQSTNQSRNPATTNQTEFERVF", "sequence (O75909 whole entry partner)": "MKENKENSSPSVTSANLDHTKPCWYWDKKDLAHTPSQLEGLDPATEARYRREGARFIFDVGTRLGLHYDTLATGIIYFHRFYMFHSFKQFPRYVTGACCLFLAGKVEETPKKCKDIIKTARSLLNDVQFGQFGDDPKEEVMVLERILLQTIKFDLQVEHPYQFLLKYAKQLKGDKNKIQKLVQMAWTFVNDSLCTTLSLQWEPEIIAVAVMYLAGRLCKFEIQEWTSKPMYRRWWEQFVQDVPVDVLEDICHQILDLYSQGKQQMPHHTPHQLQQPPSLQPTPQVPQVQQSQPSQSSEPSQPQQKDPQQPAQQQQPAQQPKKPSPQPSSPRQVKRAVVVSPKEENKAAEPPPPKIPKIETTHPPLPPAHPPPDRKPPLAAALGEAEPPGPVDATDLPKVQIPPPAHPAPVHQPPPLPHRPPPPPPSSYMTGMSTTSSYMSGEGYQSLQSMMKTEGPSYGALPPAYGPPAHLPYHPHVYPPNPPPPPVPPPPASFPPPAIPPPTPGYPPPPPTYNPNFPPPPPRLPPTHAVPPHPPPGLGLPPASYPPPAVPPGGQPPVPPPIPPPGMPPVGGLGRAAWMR", "experiment": "CDK panel kinase inhibition", "format": "biochemical", "conditions": "read-out: Percentage of inhibition (%)", "description": "as §1"}, "CCL2 mRNA in KG-1 cells": {"system": "CCL2 mRNA in KG-1 cells", "experiment": "Real-time RT-PCR of CCL2 mRNA", "format": "cell-based", "procedure": "(§2) Total RNA from the various cell lines was isolated using the RNeasy extraction method (Qiagen, Valencia, CA, USA). First-strand cDNA was synthesized from total RNA by iScript cDNA synthesis (Bio-Rad, Hercules, CA, USA) according to the manufacturer’s instructions. Taqman RT–PCR analysis was performed on cDNA in a 384-well plate, using a Prism 7900HT Real-Time PCR System (Applied Biosystems, Foster City, CA, USA). Primers and Taqman probes were purchased from Applied Biosystems. The expression of target genes MCL1 (Hs03043899_m1, Thermo fisher) and CCL2 (Hs00234140_m1, Thermo fisher) in each sample was assayed in triplicate and normalized to human GUSB for mRNA expression analysis. An unpaired t test was used to calculate statistical significance."}, "[1]": {"system": "CCL2 mRNA in MOLM-14 cells", "experiment": "Real-time RT-PCR of CCL2 mRNA", "format": "cell-based", "procedure": "as §2"}, "Kinetic solubility assay": {"experiment": "Kinetic solubility assay", "format": "physicochemical", "procedure": "MK256 was supplied as DMSO stock at 10 mM. 190 μL of buffer solution (PBS, pH 7.4) was added to all wells on a 96-well Millipore Solubility filter plate. 10 μL of MK256 or control compound testosterone was transferred in triplicate to the buffer wells to a final concentration of 500 μM. The filter plate was shaken for 1.5 hours at room temperature. Samples were filtered via a vacuum system into a fresh 96-well plate. Compounds were diluted to 500 μM (highest concentration) in DMSO and further diluted 1:10 for calibration curve (three-point). HPLC/UV analysis was performed on all samples (220 nm, 254 nm, and 280 nm)."}, "[2]": {"experiment": "Hepatocyte stability assay", "format": "in vitro ADME, Dog", "procedure": "Human LiverPoolTM 20-donor, dog and mouse cryopreserved hepatocytes were obtained from BioreclamationIVT. Cryopreserved hepatocytes were removed from the liquid nitrogen tank and thawed in a 37°C water bath. As soon as the cells pulled away from the vial wall, they were decanted into 48 ml of warm HT medium. Cells were centrifuged for four minutes at 420 rpm (50 g). After the supernatant was removed, the pellet was re-suspended in warm DMEM medium. Cell density was counted by a hemacytometer. The assay was carried out in 96-well microtiter plates. MK256 was incubated for 0, 60, 120, and 180 minutes at 37°C with hepatocytes. Reaction mixtures (50 μL) contained a final concentration of 1 μM MK256, 0.5 million cells/mL hepatocytes in the DMEM medium. At each time point (for example, 0, 1, 2, and 3 hrs), 200 μL of quench solution (100% acetonitrile with 0.1% formic acid) with internal standard were transferred to each well. […] All samples were analyzed on LC/MS/MS using an AB Sciex API 4000 instrument, coupled to a Shimadzu LC-20AD LC Pump system. […] The extent of metabolism was calculated as the disappearance of the test compound, compared to the 0-min control reaction incubations. Initial rates were calculated for the compound concentration and used to determine t1/2 values and subsequently, the intrinsic clearance, CLint = (0.693)(1/t1/2 (min))(mL incubation/million cells)."}, "MOLM-14 xenograft model": {"system": "MOLM-14 xenograft model", "experiment": "MOLM-14 xenograft efficacy study, single agent", "format": "in vivo, NOD SCID mice", "conditions": "50 mg/kg twice a day", "procedure": "These favorable properties led us to evaluate the efficacy of MK256 in vivo using the MOLM-14 cell line to examine if the compound could inhibit tumor growth in the MOLM-14 xenograft model. Mice were given 100 ul of 50 mg/kg of MK256 or 100 ul of saline twice a day for 21 days following a 5-day on/ 2-day off schedule. Tumors from two groups of mice were all initially ~ 300 mm^3. Tumors of the mice in the control group continued to grow quickly during the 21-day period, with the average tumor volume reaching 1600 mm^3 on day 22, when we measured tumors for the last time. In the contrast, tumors of the mice in the treatment group shrank to 200 mm^3 on average by day 22 (Figure 9A). Average tumor weight was 0.16 g for the treatment group and 1.85 g for the control group (Figure 9B). […] Tumors collected on day 22 were then processed and analyzed with western blot.\nFemale NOD SCID mice were purchased from Charles River Laboratories (Wilmington, USA) or bred at the animal facilities of the University of California San Francisco. All animal experiments were carried out under protocols approved by the Institutional Animal Care and Use Committee of the University of California San Francisco. For MOLM-14 model, 200 ul of 1 × 10^6 cells combined with matrigel (v/v, 1:1) were injected subcutaneously in the right flank of NODSCID mice. Tumors were allowed to grow for two weeks to reach a tumor volume about 200 mm^3 before mice were randomly grouped. The animals were treated for three weeks on a 5 days on/2 days off schedule by oral gavage with MK256 (dissolved in saline) alone or in combination with Venetoclax (dissolved in 5% DMSO + 50% PEG 300 + 5% Tween 80 + ddH2O). In the single treatment study, MK256 was administered by mice twice a day at 50 mg/kg. In the combination study, MK256 (10 or 50 mg/kg) and was coadministered with Venetoclax (25 mg/kg) once a day. Tumor volume and body weight were monitored once every 3 days. Tumor volume was calculated as L × W^2/2, where L and W were the length and width of the tumor, respectively."}}, "note": "Where two headings read alike, the source gives them in different places."}
{"smiles": "Nc1nccc2c(Br)cc3cc(C(=O)O)ccc3c12", "note": "[MK256]", "values": [{"measurement": "inhibition at 0.2 µM", "setting": "CDK2/cyclin E1; 200 nM", "result": 5, "unit": "%"}, {"measurement": "inhibition at 10 µM", "setting": "CDK2/cyclin E1; 10 μM", "result": 70, "unit": "%"}, {"measurement": "inhibition at 0.2 µM", "setting": "CDK9/cyclin K; 200 nM", "result": 76, "unit": "%"}, {"measurement": "inhibition at 10 µM", "setting": "CDK9/cyclin K; 10 μM", "result": 101, "unit": "%"}, {"measurement": "expression of CCL2 downregulated to", "setting": "CCL2 mRNA in KG-1 cells; 300 nM", "result": "approximately 50%"}, {"measurement": "expression of CCL2 downregulated to", "setting": "CCL2 mRNA in KG-1 cells; 1 uM", "result": "~40", "unit": "%"}, {"measurement": "mRNA level of CCL2", "setting": "[1]; 1 uM", "result": "abolished"}, {"measurement": "mrna remaining at 0.3 µM", "setting": "[1]; Homo sapiens, MOLM-14, 300 nM, read-out: mRNA level of CCL2 (remaining)", "result": "~5", "unit": "%"}, {"measurement": "solubility kinetic at 1.5 h", "setting": "Kinetic solubility assay; PBS buffer, aqueous buffer, kinetic from dmso stock, pH 7.4, read-out: KSOL (μM) PBS (PH 7.4)", "result": 566, "unit": "µM"}, {"measurement": "solubility kinetic at 1.5 h", "setting": "Kinetic solubility assay; PBS, pH 7.4, read-out: KSOL (μM) PBS (PH 7.4)", "result": 566, "unit": "µM"}, {"measurement": "Clint (μL·min^−1·mg protein^−1)", "setting": "[2]; Dog hepatocytes", "result": 7, "unit": "μL·min^−1·mg protein^−1"}, {"measurement": "half-life at 1 µM", "setting": "[2]; dog, cryopreserved dog hepatocytes, read-out: T½", "result": 214, "unit": "min"}, {"measurement": "expression level of p-STAT1(S727) and p-STAT5(S726) in tumors collected on day 22", "setting": "MOLM-14 xenograft model", "result": "down regulate"}, {"measurement": "average tumor volume on day 22", "setting": "MOLM-14 xenograft model; 5-day on/2-day off, 21 days, start ~300 mm^3, control 1600 mm^3", "result": 200, "unit": "mm^3"}, {"measurement": "average tumor weight", "setting": "MOLM-14 xenograft model; day 22, control 1.85 g", "result": 0.16, "unit": "g"}, {"measurement": "average body weight at end of study", "setting": "MOLM-14 xenograft model; from 23.5 g at start, control 23.4 g to 25.7 g", "result": 23.9, "unit": "g"}]}
